Data from publication PMC12663132, “Assessment of cytotoxicity of some synthetic compounds against breast carcinoma spheroids with subsequent analysis of pro-apoptotic and gene expression” (Scientific Reports, 2025).
Counter-ions that a name gives are not always drawn.

Key:
MCF7 = assay: Cytotoxicity on MCF7 monolayers (MTT assay); conditions: Homo sapiens, MCF7, 72 h, read-out: Mean of % cytotoxicity ± SD
Protocol: (§1) Eighty pre-plated synthetic chemical compounds were screened on two human cell lines: MCF7 (ATCC® HTB-22™), a Caucasian breast adenocarcinoma model, and hTERT-RPE-1 (ATCC® CRL-4000™), a normal retinal epithelial cell line immortalized by hTERT telomerase. […] The cells were cultured in DMEM-F12 medium supplemented with L-glutamine and 10% fetal bovine serum, all were purchase from Biowest (Biotechnology company in Nuaillé, France), and maintained in a controlled incubator environment set at 37 °C with 5% CO2 and 95% humidity.
MCF7 cells were seeded in flat-bottom 96-well plates with a concentration of 20,000 cells/well, and were left overnight. The compounds were tested at a final concentration of 50 µM. Doxorubicin was used as a positive control and 0.5% DMSO as a negative control. The treatment duration was 72 h. The cytotoxicity was then assessed using the MTT assay, as described by Mosmann[43].

MCF7 3D spheroids = assay: Cytotoxicity on MCF7 3D multicellular spheroids (acid phosphatase method); conditions: Homo sapiens; for cytotoxicity at 50 µM: MCF7, 120 h, read-out: Mean of % cytotoxicity ± S.D
Protocol: as §1
3-D spheroid models were generated from MCF7 cancer and hTERT-RPE1 normal cells were seeded at 10,000 and 50,000 cells/well, respectively, in poly-HEMA coated round bottom plates according to the protocol previously mentioned[44]. The cells were incubated for 5 days to generate the spheroids with diameter of 500 ± 20 µm. The spheroids were imaged using Olympus S100, U-CMAD3 camera connected to Olympus inverted microscope and the diameter of the spheroids was measured using Cellscen-Entry software. Test compounds were added in triplicate to a final concentration of 50 µM and were incubated for 120 h. […] At the end of incubation, cytotoxicity was determined using the acid phosphatase method[45]. After washing twice with 250 μL PBS buffer, 100 μL of 0.1 M sodium citrate, 0.1% Triton X-100, p-nitrophenylphosphate (2 mg/ml) (Pierce Biotechnology Inc., Rockford, IL) was added to each well and incubated for 1.5 h at 37 °C. After incubation, 10 μL of 1N NaOH stop solution was added to each well, and absorbance was read at 405 nm. Cytotoxicity was calculated according to the following equation:

Structure (SMILES)	cytotoxicity at 50 µM (MCF7)	cytotoxicity at 50 µM (MCF7 3D spheroids)	inhibition at 50 µM (MCF7 3D spheroids; MCF7, read-out: % inhibition 3D)
COc1cc(-n2c(SC)nc3ccccc3c2=O)c(OC)cc1Cl [A02, 3-(4-chloro-2,5-dimethoxyphenyl)-2-(methylthio)-3,4-dihydroquinazolin-4-one]	94.3 ± 0.06%	67.1 ± 3.3%	–
Cc1nn(-c2ccccc2)nc1C(=O)Nc1cc(Cl)cc(Cl)c1 [A03, N4-(3,5-dichlorophenyl)-5-methyl-2-phenyl-2H-1,2,3-triazole-4-carboxamide]	94.2 ± 0.65%	39.1 ± 0.24%	–
O=[N+]([O-])c1ccc(N2CCC(n3cccc3)CC2)cc1 [A04, 1-(4-nitrophenyl)-4-(1H-pyrrol-1-yl)piperidine]	2.5 ± 0.35%	43.1 ± 0.23%	–
CCOC(=O)c1cnn(C(=O)c2snnc2C)c1N [A05, Ethyl 5-amino-1-[(4-methyl-1,2,3-thiadiazol-5-yl)carbonyl]-1H-pyrazole-4-carboxylate]	62.3 ± 2.5%	49 ± 0.8%	–
Nc1ccc(-c2ccc(N)c([N+](=O)[O-])c2)cc1[N+](=O)[O-] [A06, 3,3'-dinitro[1,1'-biphenyl]-4,4'-diamine]	82.4 ± 0.41%	60.8 ± 1%	–
O=C(O)c1nccnc1C(=O)Nc1ccccc1N1CCOCC1 [A08, 3-[(2-morpholinoanilino)carbonyl]-2-pyrazinecarboxylic acid]	17.2 ± 1%	49.3 ± 0.53%	–
O=C(Nc1cc(-c2ccccc2)n[nH]1)C1COc2ccccc2O1 (stereo not shown) [A09, N2-(3-phenyl-1H-pyrazol-5-yl)-2,3-dihydro-1,4-benzodioxine-2-carboxamide]	100 ± 0.003%	52.2 ± 1.9%	–
CCCS(=O)(=O)c1cscc1NC(=O)c1c(-c2c(F)cccc2Cl)noc1C [A10, N4-[4-(propylsulfonyl)-3-thienyl]-3-(2-chloro-6-fluorophenyl)-5-methylisoxazole-4-carboxamide]	53.8 ± 4.9%	68.6 ± 1.1%	–
Clc1ccc(CSc2ncnc3c2sc2nnc(-c4ccccc4)c(-c4ccccc4)c23)cc1 [A11, 8-[(4-chlorobenzyl)sulfanyl]-3,4-diphenylpyrimido [4',5':4,5]thieno[2,3-c]pyridazine]	44.2 ± 1.6%	46.4 ± 1.3%	–
CCOC(=O)c1ccc(-n2c(=S)[nH]c3ccccc32)cc1 [B02, ethyl 4-(2-thioxo-2,3-dihydro-1H-benzimidazol-1-yl)benzoate]	100 ± 0.003%	35.7 ± 1.8%	–
O=C(NCCc1ccncc1)C(F)(F)F [B03, N1-[2-(4-pyridyl)ethyl]-2,2,2-trifluoroacetamide]	0%	25.5 ± 0.11%	–
Cc1ncc(CO)c(C=NO)c1O [B04, 3-hydroxy-5-(hydroxymethyl)-2-methylisonicotinaldehyde oxime]	-58.5 ± 0.003%	49.3 ± 0.35%	–
COC(=O)C(C#N)=Cc1cccn1-c1ccc(C(F)(F)F)cc1 [B05, methyl 2-cyano-3-{1-[4-(trifluoromethyl)phenyl]-1H-pyrrol-2-yl}acrylate]	91.3 ± 0.6%	42.1 ± 1.9%	–
CC(=O)Cc1nsc(Nc2ccccc2)n1 [B06, 1-(5-anilino-1,2,4-thiadiazol-3-yl)acetone]	14.8 ± 2.6%	20.4 ± 0.35%	–
CC(C)=NOC(=O)c1scc(S(C)(=O)=O)c1Cl [B07, 3-chloro-2-({[(1methylethylidene)amino]oxy}carbonyl)-4-(methylsulfonyl)thiophene]	0%	34.9 ± 1.7%	–
c1cc2c(cc1N=C1SCC3CCCCN13)OCO2 (stereo not shown) [B08, N-hexahydro[1,3]thiazolo[3,4-a]pyridin-3-ylidene-1,3-benzodioxol-5-amine]	8.5 ± 0.47%	53.1 ± 0.6%	–
O=C1NC(=O)C(=Cc2ccncc2)C(=O)N1 [B09, 5-(4-pyridylmethylidene)hexahydropyrimidine-2,4,6-trione]	12.3 ± 0.7%	59.2 ± 1.2%	–
NNC(=O)Cc1ccccc1 [B10, 2-phenylacetohydrazide]	0%	48.2 ± 0.23%	–
O=[N+]([O-])c1cc(C(F)(F)F)ccc1-n1ccc(C(F)(F)F)n1 [B11, 1-[2-nitro-4-(trifluoromethyl)phenyl]-3-(trifluoromethyl)-1H-pyrazole]	0%	30.5 ± 0.53%	–
Cn1c(=NN=c2oc3ccccc3n2C)oc2ccccc21 [C03, 1,2-di(3-methyl-2,3-dihydro-1,3-benzoxazol-2-yliden)hydrazine]	86.6 ± 9.3%	3.4 ± 0.17%	–
Cn1ccnc1SCC(=O)Nc1ccc(C(C)(C)C)cc1 [C04, N1-[4-(tert-butyl)phenyl]-2-[(1-methyl-1H-imidazol-2-yl)thio]acetamide]	14.5 ± 0.58%	28.6 ± 0.76%	–
C(=Cc1ccco1)C1=NN(Cc2ccccc2)CC1 [C05, 1-benzyl-3-[2-(2-furyl)vinyl]-4,5-dihydro-1H-pyrazole hydrochloride]	62.9 ± 3.8%	48.6 ± 2%	–

Structure (SMILES)	cytotoxicity at 50 µM (MCF7)	cytotoxicity at 50 µM (MCF7 3D spheroids)	inhibition at 50 µM (MCF7 3D spheroids; MCF7, read-out: % inhibition 3D)
COc1ccc(C(=O)NCc2ccco2)cc1OC [C06, N-(2-furylmethyl)-3,4-dimethoxybenzamide]	0%	35.8 ± 0.23%	–
Cc1cc(C)n(-c2ccc(S(N)(=O)=O)cc2)n1 [C07, 4-(3,5-dimethyl-1H-pyrazol-1-yl)benzene-1-sulfonamide]	0%	55.4 ± 2.3%	–
CC(=O)c1ccccc1OC(=O)c1ccc([N+](=O)[O-])o1 [C08, 2-acetylphenyl 5-nitro-2-furoate]	66.3 ± 4.3%	30.8 ± 1.3%	–
CC(=O)Nc1ccc(NC(=O)c2nccnc2C(=O)O)cn1 [C09, 3-({[6-(acetylamino)-3-pyridinyl]amino}carbonyl)-2-pyrazinecarboxylic acid]	9.9 ± 1.1%	-23.4 ± 0.5%	-23%
O=C(SCc1cccc(C(F)(F)F)c1)c1ccc(Cl)c(Cl)c1 [C10, S-[3-(trifluoromethyl)benzyl] 3,4-dichlorobenzene carbothioate]	100 ± 0.003%	33.8 ± 1.6%	–
O=C(NNC(=O)c1ccc(OC(F)(F)F)cc1)c1ccc(Cl)cc1 [C11, N'1-(4-chlorobenzoyl)-4-(trifluoromethoxy)benzene-1-carbohydrazide]	83.1 ± 1.17%	66.5 ± 0.24%	–
O=[N+]([O-])c1ccc2nc(-c3ccccc3)c(-c3ccccc3)nc2c1 [D02, 6-nitro-2,3-diphenylquinoxaline]	5.2 ± 0.18%	-8 ± 0.003%	–
O=C(Nc1cccc(-c2ncon2)c1)C(Cl)(Cl)Cl [D03, 2,2,2-trichloro-N-[3-(1,2,4-oxadiazol-3-yl)phenyl]acetamide]	11.1 ± 0.9%	23.5 ± 0.17%	–
Cc1c(C)c(C)c2[nH]c(-c3ccc4c(c3)OCO4)nc2c1C [D04, 2-(1,3-benzodioxol-5-yl)-4,5,6,7-tetramethyl-1H-benzimidazole]	100 ± 0.003%	67.9 ± 0.5%	–
CC(=O)Nc1ccc(-c2ccccc2)cc1 [D05, N-[1,1'-biphenyl]-4-ylacetamide]	49.7 ± 4.1%	50.9 ± 2.4%	–
COc1c(Cl)cc([N+](=O)[O-])c(OC)c1C(=O)O [D06, 3-chloro-2,6-dimethoxy-5-nitrobenzoic acid]	10.4 ± 0.6%	40.8 ± 2.1%	–
COc1cc(-n2c(S)nnc2CCc2nc(-c3ccc(Cl)cc3)no2)c(OC)cc1Cl [D07, 4-(4-chloro-2,5-dimethoxyphenyl)-5-{2-[3-(4-chlorophenyl)-1,2,4-oxadiazol-5-yl]ethyl}-4H-1,2,4-triazole-3-thiol]	88.7 ± 0.23%	50.1 ± 2.3%	–
Cc1ccc(OCC(O)CN2CCC(C(N)=O)CC2)c([N+](=O)[O-])c1 (stereo not shown) [D09, 1-[2-hydroxy-3-(4-methyl-2-nitrophenoxy)propyl]piperidine-4-carboxamide]	7.6 ± 0.2%	50 ± 0.35%	–
COc1ccc(NNC(=O)c2c(-c3c(F)cccc3Cl)noc2C)cc1 [D10, 3-(2-chloro-6-fluorophenyl)-N'-(4-methoxyphenyl)-5-methyl-4-isoxazolecarbohydrazide]	52.1 ± 2.11%	51.7 ± 1.1%	–
CCCc1cc(=O)oc2cc(OC(C)C(=O)NNS(=O)(=O)c3cccc(C(F)(F)F)c3)ccc12 (stereo not shown) [D11, N'1-{2-[(2-oxo-4-propyl-2H-chromen-7-yl)oxy]propanoyl}-3-(trifluoromethyl)benzene-1-sulfonohydrazide]	35.5 ± 0.35%	40.6 ± 0.11%	–
CCOC1=NC(=Cc2[nH]c(OCC)c(CC(=O)OC)c2C(=O)OC)C(C(=O)OC)=C1CC(=O)OC [E02, methyl 5-ethoxy-2-{[5-ethoxy-3-(methoxycarbonyl)-4-(2-methoxy-2-oxoethyl)-2H-pyrrol-2-yliden]methyl}-4-(2-methoxy-2-oxoethyl)-1H-pyrrole-3-carboxylate]	83.2 ± 1.2%	-10.8 ± 0.7%	–
CC(C)(C)SCCNc1nc(Oc2ccc(F)cc2)nc(Oc2ccc(F)cc2)n1 [E03, N2-[2-(tert-butylthio)ethyl]-4,6-di(4-fluorophenoxy)-1,3,5-triazin-2-amine]	80.3 ± 1.5%	41.8 ± 0.6%	–
CCOc1nc2ccccc2nc1OCC [E04, 2,3-diethoxyquinoxaline]	62.6 ± 3.1%	42 ± 1.1%	–
CN(C)C=C1Cc2ccccc2C1=O [E05, 2-[(dimethylamino)methylidene]indan-1-one]	47.5 ± 6.2%	41.4 ± 3.6%	–
N#CC1(c2ccccc2)N=C2C=CC=CN2N=C1c1ccccc1 (stereo not shown) [E06, 2,3-diphenyl-2H-pyrido[1,2-b][1,2,4]triazine-2-carbonitrile]	26.7 ± 1.18%	55 ± 1.6%	–
NS(=O)(=O)c1ccc(NNC(=O)c2cccs2)cc1 [E07, 4-[2-(2-thienylcarbonyl)hydrazino]benzenesulfonamide]	0%	36.2 ± 0.35%	–
COc1cccc2c1C(=O)c1c(O)c3c(c(O)c1C2=O)C[C@@](O)(C(=O)CO)C[C@@H]3O[C@H]1C[C@H](N)[C@H](O)[C@H](C)O1 [doxorubicin, reference compound]	57.6 ± 2.1%	–	–
